From US7420051B2, “Synthetic process for the manufacture of an ecteinaschidin compound” (Pharma Mar, S.A., priority 2000, dated 2008) come the findings set out here.

Holding throughout (format): cell-based
The test system of experiment [1] is DU-145. Kind of experiment: Cytotoxic activity screening, DU-145 cells. As to conditions: Homo sapiens, DU-145, DU-145 cells.
In experiment [2] the test system is P-388 (suspension culture of a lymphoid neoplasm from DBA/2 mouse). Kind of experiment: Cytotoxic activity screening, P-388 cells. As to conditions: Mus musculus, P388, 72 h, three days of incubation, approximate IC50. On the procedure: (§1) Cell Cultures. Cells were maintained in logarithmic phase of growth in Eagle's Minimum Essential Medium, with Earle's Balanced Salts, with 2.0 mM L-glutamine, with non-essential amino acids, without sodium bicarbonate (EMEM/neaa); supplemented with 10% Fetal Calf Serum (FCS), 10^−2 M sodium bicarbonate and 0.1 g/l penicillin-G+streptomycin sulfate.
(§2) A simple screening procedure has been carried out to determine and compare the antitumour activity of these compounds, using an adapted form of the method described by Bergeron et al (1984). The tumour cell line employed have been P-388 (suspension culture of a lymphoid neoplasm from DBA/2 mouse), A-549 (monolayer culture of a human lung carcinoma), HT-29 (monolayer culture of a human colon carcinoma) and MEL-28 (monolayer culture of a human melanoma).
P-388 cell were seeded into 16 mm wells at 1×10^4 cells per well in 1 ml aliquots of MEM 5FCS containing the indicated concentration of drug. A separate set of cultures without drug was seeded as control growth to ensure that cells remained in exponential phase of growth. All determinations were carried out in duplicate.

Experiment [3] relates to CV-1. Put plainly: Cytotoxic activity screening, CV-1 cells. As to conditions: Cercopithecidae.
In experiment [4] the test system is HT-29 (monolayer culture of a human colon carcinoma). Put plainly: Cytotoxic activity screening, HT-29 cells. Particulars: Homo sapiens, HT-29, 72 h, three days of incubation, Crystal Violet, approximate IC50. The procedure:
as §1, §2
(§3) A-549, HT-29 and MEL-28 were seeded into 16 mm wells at 2×10^4 cells per well in 1 ml aliquots of MEM 10FCS containing the indicated concentration of drug. A separate set of cultures without drug was seeded as control growth to ensure that cells remained in exponential phase of growth. All determinations were carried out in duplicate. After three days of incubation at 37° C., 10% CO2 in a 98% humid atmosphere, the wells were stained with 0.1% Crystal Violet. An approximately IC50 was determined by comparing the growth in wells with drug to the growth in wells control.

The subject of experiment [5] is MEL-28 (monolayer culture of a human melanoma). Kind of experiment: Cytotoxic activity screening, MEL-28 cells. As to conditions: SK-MEL-28, 72 h, three days of incubation, Crystal Violet, approximate IC50. The procedure: as §1, §2, §3
The subject of experiment [6] is A-549 (monolayer culture of a human lung carcinoma). Put plainly: Cytotoxic activity screening, A-549 cells. Particulars: Homo sapiens, A549, 72 h, three days of incubation, Crystal Violet, approximate IC50. The procedure:
as §1, §2, §3

With `COc1c(C)cc2c(c1O)[C@@H]1C3Cc4c(O)c(C)c5c(c4[C@H](CN4C(=O)c6ccccc6C4=O)N3[C@@H](C#N)[C@H](C2)N1C)OCO5` (stereo partly shown), the half-maximal inhibitory concentration (IC50) in experiment [1], in experiment [2], in experiment [3], in experiment [4], in experiment [5] and in experiment [6] was 0.001 µM throughout.

Turning to `C=CCOc1c(C)c2c(c3c1CC1[C@H]4c5c(cc(C)c(OC)c5OCOC)C[C@@H]([C@H](C#N)N1[C@H]3CN)N4C)OCO2` (stereo partly shown) [drawing 80], the IC50 in experiment [2] is 0.18 µM; in experiment [3], 1.8 µM.

In the case of `C=CCOc1c(C)c2c(c3c1CC1[C@H]4c5c(cc(C)c(OC)c5OCOC)C[C@@H]([C@H](C#N)N1[C@H]3CNC(=O)OCC(Cl)(Cl)Cl)N4C)OCO2` (stereo partly shown), the IC50 in experiment [1] and in experiment [3] was 0.13 µM throughout.

Turning to `COCOc1c(OC)c(C)cc2c1[C@@H]1C3CC4=C(C(=O)C(O)=C(C)C4=O)[C@H](CNC(C)=O)N3[C@@H](C#N)[C@H](C2)N1C` (stereo partly shown), the IC50 was more than 9 µM in experiment [2]; more than 18.1 µM in experiment [3]; more than 18.1 µM in experiment [4]; more than 18.1 µM in experiment [5]; more than 18.1 µM in experiment [6].

Consider `COC1=C(C)C(=O)C2=C(C1=O)[C@H](CNC(=O)C(C)N)N1C(C2)[C@H]2c3c(cc(C)c(OC)c3O)C[C@@H]([C@@H]1C#N)N2C` (stereo partly shown), for which the IC50 turned out to be 0.009 µM in experiment [2]; 0.023 µM in experiment [3]; 0.018 µM in experiment [4]; 0.018 µM in experiment [5]; 0.018 µM in experiment [6].

Consider `COCOc1c(OC)c(C)cc2c1[C@@H]1C3CC4=C(C(=O)C(OC)=C(C)C4=O)[C@H](CNC(C)=O)N3[C@@H](C#N)[C@H](C2)N1C` (stereo partly shown), for which, in experiment [3], the IC50 is 0.22 µM.

`C=CCOc1c(C)c2c(c3c1CC1[C@H]4c5c(cc(C)c(OC)c5O)C[C@@H]([C@H](C#N)N1[C@H]3CNC(=O)OCC(Cl)(Cl)Cl)N4C)OCO2` (stereo partly shown): the IC50 in experiment [1] and in experiment [3] was 0.014 µM each time.

`COC1=C(C)C(=O)C2=C(C1=O)[C@H](CNC(=O)C(C)N=CSNc1ccccc1)N1C(C2)[C@H]2c3c(cc(C)c(OC)c3O)C[C@@H]([C@@H]1C#N)N2C` (stereo partly shown): the IC50 in experiment [2] is 0.015 µM; in experiment [3], 0.018 µM; in experiment [4], 0.015 µM; in experiment [5] it was 0.015 µM; in experiment [6] it was 0.015 µM.

Take `COc1c(C)cc2c(c1O)[C@@H]1C3Cc4c(OC(C)=O)c(C)c5c(c4[C@H](CNC(=O)[C@H](C)NC(=O)/C=C/c4ccccc4)N3[C@@H](C#N)[C@H](C2)N1C)OCO5` (stereo partly shown): the IC50 in experiment [1] stood at 0.0005 µM; in experiment [2], 0.001 µM; in experiment [4], 0.0005 µM; in experiment [5], 0.001 µM; in experiment [6], 0.001 µM.

As for `COc1c(C)cc2c(c1O)[C@@H]1C3Cc4c(O)c(C)c5c(c4[C@H](CNC(=O)[C@H](C)NC(=O)C(F)(F)F)N3[C@@H](C#N)[C@H](C2)N1C)OCO5` (stereo partly shown), the IC50 in experiment [1], in experiment [2], in experiment [4], in experiment [5] and in experiment [6] was 0.01 µM each time.

Consider `COc1c(C)cc2c(c1O)[C@@H]1C3Cc4c(OC(C)=O)c(C)c5c(c4[C@H](CNC(=O)[C@H](C)N)N3[C@@H](C#N)[C@H](C2)N1C)OCO5` (stereo partly shown), for which the IC50 in experiment [1] is 0.016 µM; in experiment [2], 0.008 µM; in experiment [4], 0.008 µM; in experiment [5], 0.008 µM; in experiment [6] it was 0.016 µM.
